PubChem BioAssay (NCI)
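Cells were grown in 96-well plates and exposed to each compound for 48 hours at five concentrations; endpoints were interpolated linearly between bracketing concentrations, or set to the highest concentration if not reached. GI50: concentration for 50% inhibition of growth. At the TGI there is no net growth.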

Legend:
Test in all cases: growth of human tumour cells (NCI), 48 h; in the data active = GI50 below about 0.43 µM; inactive = the rest
NCI-H460 lung = test system: NCI-H460 lung
UO-31 renal = test system: UO-31 renal
ACHN renal = test system: ACHN renal
MCF7 breast = test system: MCF7 breast
HT29 colon = test system: HT29 colon
U251 CNS = test system: U251 CNS
OVCAR-4 ovarian = test system: OVCAR-4 ovarian
NCI-H23 lung = test system: NCI-H23 lung
MDA-N = test system: MDA-N
SNB-19 CNS = test system: SNB-19 CNS
SF-295 CNS = test system: SF-295 CNS
A498 renal = test system: A498 renal
RXF 393 renal = test system: RXF 393 renal
UACC-62 melanoma = test system: UACC-62 melanoma
M14 melanoma = test system: M14 melanoma
LOX IMVI melanoma = test system: LOX IMVI melanoma
SN12C renal = test system: SN12C renal
MDA-MB-435 = test system: MDA-MB-435
K-562 leukemia = test system: K-562 leukemia
PC-3 prostate = test system: PC-3 prostate
HOP-62 NSCLC = test system: HOP-62 NSCLC
A549 NSCLC = test system: A549 NSCLC
COLO 205 colon = test system: COLO 205 colon
HOP-92 NSCLC = test system: HOP-92 NSCLC
HS 578T breast = test system: HS 578T breast
OVCAR-3 ovarian = test system: OVCAR-3 ovarian
OVCAR-8 ovarian = test system: OVCAR-8 ovarian
CCRF-CEM leukemia = test system: CCRF-CEM leukemia
SF-539 CNS = test system: SF-539 CNS
IGROV1 ovarian = test system: IGROV1 ovarian
RPMI-8226 leukemia = test system: RPMI-8226 leukemia
SF-268 CNS = test system: SF-268 CNS
MDA-MB-231 breast = test system: MDA-MB-231 breast
HCC-2998 colon = test system: HCC-2998 colon
KM12 colon = test system: KM12 colon
UACC-257 melanoma = test system: UACC-257 melanoma
HL-60(TB) leukemia = test system: HL-60(TB) leukemia
SK-MEL-5 melanoma = test system: SK-MEL-5 melanoma
SNB-75 CNS = test system: SNB-75 CNS
NCI-H522 lung = test system: NCI-H522 lung
BT-549 breast = test system: BT-549 breast
EKVX NSCLC = test system: EKVX NSCLC
CAKI-1 renal = test system: CAKI-1 renal
SK-MEL-2 melanoma = test system: SK-MEL-2 melanoma
SK-OV-3 ovarian = test system: SK-OV-3 ovarian
SK-MEL-28 melanoma = test system: SK-MEL-28 melanoma
NCI-H226 lung = test system: NCI-H226 lung
NCI/ADR-RES ovarian = test system: NCI/ADR-RES ovarian
T-47D breast = test system: T-47D breast
DU-145 prostate = test system: DU-145 prostate
HCT-116 colon = test system: HCT-116 colon
SW-620 colon = test system: SW-620 colon
SR leukemia = test system: SR leukemia
TK-10 renal = test system: TK-10 renal
MOLT-4 leukemia = test system: MOLT-4 leukemia
HCT-15 colon = test system: HCT-15 colon
OVCAR-5 ovarian = test system: OVCAR-5 ovarian
786-0 renal = test system: 786-0 renal
MALME-3M melanoma = test system: MALME-3M melanoma

CC[C@@H](/C=C\CCC1(C[C@@H](N)CCC=C(C)C)OCCO1)O[Si](C(C)C)(C(C)C)C(C)C
30.6 µM: TGI (IGROV1 ovarian)
32.3 µM: TGI (UO-31 renal)
48.7 µM: TGI (T-47D breast)
29.3 µM: TGI (EKVX NSCLC)
37.3 µM: TGI (RXF 393 renal)
51.6 µM: TGI (SW-620 colon)
31.8 µM: TGI (786-0 renal)
35.3 µM: TGI (KM12 colon)
32.4 µM: TGI (A498 renal)
29.6 µM: TGI (PC-3 prostate)
31.4 µM: TGI (HCT-116 colon)
32 µM: TGI (ACHN renal) | TGI (HT29 colon)
36.6 µM: TGI (UACC-257 melanoma)
30.7 µM: TGI (MDA-N)
31.1 µM: TGI (K-562 leukemia) | TGI (OVCAR-5 ovarian)
34.2 µM: TGI (NCI-H226 lung)
38.2 µM: TGI (NCI-H23 lung)
38 µM: TGI (RPMI-8226 leukemia)
23 µM: TGI (HL-60(TB) leukemia)
31.6 µM: TGI (SN12C renal)
36.8 µM: TGI (OVCAR-4 ovarian)
33.6 µM: TGI (M14 melanoma) | TGI (MDA-MB-231 breast)
37.1 µM: TGI (MOLT-4 leukemia)
33.9 µM: TGI (NCI/ADR-RES ovarian)
32.8 µM: TGI (SNB-19 CNS)
31.9 µM: TGI (UACC-62 melanoma)
26.4 µM: TGI (OVCAR-8 ovarian)
33.1 µM: TGI (A549 NSCLC)
37.4 µM: TGI (SF-295 CNS)
35 µM: TGI (BT-549 breast)
39.9 µM: TGI (SF-268 CNS)
27.3 µM: TGI (COLO 205 colon)
31.7 µM: TGI (SK-MEL-2 melanoma)
34.1 µM: TGI (SF-539 CNS)
58.7 µM: TGI (CCRF-CEM leukemia)
34.6 µM: TGI (SNB-75 CNS)
18.3 µM: TGI (LOX IMVI melanoma)
35.1 µM: TGI (U251 CNS)
38.8 µM: TGI (OVCAR-3 ovarian)
31.2 µM: TGI (TK-10 renal)
40.3 µM: TGI (DU-145 prostate)
39.7 µM: TGI (NCI-H522 lung)
48.2 µM: TGI (HOP-62 NSCLC)
32.7 µM: TGI (SK-MEL-5 melanoma)
30.2 µM: TGI (MCF7 breast)
14.5 µM: TGI (SR leukemia)
34.9 µM: TGI (NCI-H460 lung) | TGI (MDA-MB-435)
28.7 µM: TGI (HOP-92 NSCLC)
38.4 µM: TGI (SK-MEL-28 melanoma)
26 µM: TGI (HCC-2998 colon)
35.4 µM: TGI (CAKI-1 renal) | TGI (HCT-15 colon)
52.4 µM: TGI (HS 578T breast)
37.8 µM: TGI (SK-OV-3 ovarian)

CC(C)(C)NC(=O)C12C3C4C1C1C2C3C41C(=O)NC(C)(C)C (stereo unspecified)
71.6 µM: TGI (HOP-92 NSCLC)
> 100 µM: TGI (NCI-H460 lung) | TGI (UO-31 renal) | TGI (ACHN renal) | TGI (MCF7 breast) | TGI (HT29 colon) | TGI (U251 CNS) | TGI (OVCAR-4 ovarian) | TGI (NCI-H23 lung) | TGI (MDA-N) | TGI (SNB-19 CNS) | TGI (SF-295 CNS) | TGI (A498 renal) | TGI (RXF 393 renal) | TGI (UACC-62 melanoma) | TGI (M14 melanoma) | TGI (LOX IMVI melanoma) | TGI (SN12C renal) | TGI (MDA-MB-435) | TGI (K-562 leukemia) | TGI (PC-3 prostate) | TGI (HOP-62 NSCLC) | TGI (A549 NSCLC) | TGI (COLO 205 colon) | TGI (HS 578T breast) | TGI (OVCAR-3 ovarian) | TGI (OVCAR-8 ovarian) | TGI (CCRF-CEM leukemia) | TGI (SF-539 CNS) | TGI (IGROV1 ovarian) | TGI (SF-268 CNS) | TGI (MDA-MB-231 breast) | TGI (HCC-2998 colon) | TGI (KM12 colon) | TGI (UACC-257 melanoma) | TGI (HL-60(TB) leukemia) | TGI (SK-MEL-5 melanoma) | TGI (NCI-H522 lung) | TGI (BT-549 breast) | TGI (EKVX NSCLC) | TGI (CAKI-1 renal) | TGI (SK-MEL-2 melanoma) | TGI (SK-MEL-28 melanoma) | TGI (NCI/ADR-RES ovarian) | TGI (T-47D breast) | TGI (DU-145 prostate) | TGI (HCT-116 colon) | TGI (SW-620 colon) | TGI (SR leukemia) | TGI (TK-10 renal) | TGI (MOLT-4 leukemia) | TGI (HCT-15 colon) | TGI (OVCAR-5 ovarian) | TGI (786-0 renal)

O=c1c(-c2ccc(O)cc2)coc2cc(OC3OC(CO)C(O)C(O)C3O)cc(O)c12 (stereo unspecified)
> 100 µM: TGI (NCI-H460 lung) | TGI (UO-31 renal) | TGI (ACHN renal) | TGI (MCF7 breast) | TGI (HT29 colon) | TGI (U251 CNS) | TGI (OVCAR-4 ovarian) | TGI (NCI-H23 lung) | TGI (MDA-N) | TGI (SNB-19 CNS) | TGI (SF-295 CNS) | TGI (A498 renal) | TGI (RXF 393 renal) | TGI (UACC-62 melanoma) | TGI (M14 melanoma) | TGI (LOX IMVI melanoma) | TGI (SN12C renal) | TGI (MDA-MB-435) | TGI (K-562 leukemia) | TGI (PC-3 prostate) | TGI (HOP-62 NSCLC) | TGI (A549 NSCLC) | TGI (COLO 205 colon) | TGI (HS 578T breast) | TGI (OVCAR-3 ovarian) | TGI (OVCAR-8 ovarian) | TGI (CCRF-CEM leukemia) | TGI (SF-539 CNS) | TGI (IGROV1 ovarian) | TGI (RPMI-8226 leukemia) | TGI (SF-268 CNS) | TGI (MDA-MB-231 breast) | TGI (HCC-2998 colon) | TGI (KM12 colon) | TGI (UACC-257 melanoma) | TGI (HL-60(TB) leukemia) | TGI (SK-MEL-5 melanoma) | TGI (SNB-75 CNS) | TGI (NCI-H522 lung) | TGI (BT-549 breast) | TGI (EKVX NSCLC) | TGI (CAKI-1 renal) | TGI (SK-MEL-2 melanoma) | TGI (SK-OV-3 ovarian) | TGI (SK-MEL-28 melanoma) | TGI (NCI-H226 lung) | TGI (T-47D breast) | TGI (DU-145 prostate) | TGI (HCT-116 colon) | TGI (SR leukemia) | TGI (MALME-3M melanoma) | TGI (TK-10 renal) | TGI (MOLT-4 leukemia) | TGI (HCT-15 colon) | TGI (OVCAR-5 ovarian) | TGI (786-0 renal)
> 10 µM: TGI (NCI/ADR-RES ovarian) | TGI (SW-620 colon)
inactive: GI50 (NCI-H460 lung) > 10 µM | GI50 (ACHN renal) > 10 µM | GI50 (MCF7 breast) > 100 µM | GI50 (U251 CNS) > 100 µM | GI50 (OVCAR-4 ovarian) > 100 µM | GI50 (NCI-H23 lung) > 100 µM | GI50 (RXF 393 renal) > 10 µM | GI50 (UACC-62 melanoma) > 10 µM | GI50 (M14 melanoma) > 100 µM | GI50 (MDA-MB-435) > 100 µM | GI50 (K-562 leukemia) > 100 µM | GI50 (HOP-62 NSCLC) > 100 µM | GI50 (A549 NSCLC) > 10 µM | GI50 (COLO 205 colon) > 100 µM | GI50 (CCRF-CEM leukemia) > 10 µM | GI50 (IGROV1 ovarian) > 100 µM | GI50 (RPMI-8226 leukemia) > 10 µM | GI50 (SF-268 CNS) > 10 µM | GI50 (HL-60(TB) leukemia) > 100 µM | GI50 (SK-MEL-5 melanoma) > 100 µM | GI50 (SNB-75 CNS) > 10 µM | GI50 (CAKI-1 renal) > 10 µM | GI50 (SK-MEL-2 melanoma) > 100 µM | GI50 (SK-OV-3 ovarian) > 100 µM | GI50 (SK-MEL-28 melanoma) > 100 µM | GI50 (T-47D breast) > 100 µM | GI50 (SR leukemia) > 10 µM | GI50 (MALME-3M melanoma) > 100 µM | GI50 (MOLT-4 leukemia) > 10 µM | GI50 (OVCAR-5 ovarian) > 100 µM | GI50 (786-0 renal) > 10 µM
